Assay results published in patent US6395683B1, “Heterocyclylbenzonitriles” (Bayer Aktiengesellschaft, priority 1994, dated 2002).

Experiments:
Experiment in all cases: Post-emergence test
Type in all cases: in vivo
Veronica = conditions: 30 g/ha, after three weeks
Procedure: (§1) Post-emergence Test Solvent: 5 parts by weight of acetone Emulsifier: 1 part by weight of alkylaryl polyglycol ether To produce a suitable preparation of active compound, 1 part by weight of active compound is mixed with the stated amount of solvent, the stated amount of emulsifier is added and the concentrate is diluted with water to the desired concentration. Test plants which have a height of 5-15 cm are sprayed with the preparation of the active compound in such a way as to apply the particular amounts of active compound desired per unit area. After three weeks, the degree of damage to the plants is rated in % damage in comparison to the development of the untreated control. The figures denote: 0%=no action (like untreated control) 100%=total destruction

barley = conditions: 30 g/ha, barley (crop plant), after three weeks
Procedure: as §1

Amaranthus = conditions: 30 g/ha, after three weeks
Procedure: as §1

Chenopodium = conditions: 30 g/ha, after three weeks
Procedure: as §1

Abutilon = conditions: 30 g/ha, after three weeks
Procedure: as §1

`CS(=O)(=O)Nc1cc(N2C(=O)C3=C(CCCC3)C2=O)c(F)cc1C#N` [Example 1, N-(4-cyano-2-fluoro-5-methylsulphonylaminophenyl)-3,4,5,6-tetrahydrophthalimide] was tested, and the “degree of damage to the plants, % damage in comparison to untreated control” value (from here on “degree of damage to the plants, % damage”) (Veronica) was 100%, the “tolerance with respect to crop plants” value (barley) was “very good tolerance” and the “degree of damage to the plants, % damage” value (Amaranthus) was 100%. For the same compound, the “degree of damage to the plants, % damage” value (Chenopodium) was 95% and the “degree of damage to the plants, % damage” value (Abutilon) was 100%.
